The record followed here is patent US20060148858A1, “1, 2-Azole derivatives with hypoglycemic and hypolipidemic activity” (priority 2002, published 2006).

One data set has as its target T1, PPARδ-RXRα heterodimer (Homo sapiens, UniProt Q03181).
T1 construct: expressed in transfected cells; host or cells: COS-1
T1 sequence (Q03181 1-441): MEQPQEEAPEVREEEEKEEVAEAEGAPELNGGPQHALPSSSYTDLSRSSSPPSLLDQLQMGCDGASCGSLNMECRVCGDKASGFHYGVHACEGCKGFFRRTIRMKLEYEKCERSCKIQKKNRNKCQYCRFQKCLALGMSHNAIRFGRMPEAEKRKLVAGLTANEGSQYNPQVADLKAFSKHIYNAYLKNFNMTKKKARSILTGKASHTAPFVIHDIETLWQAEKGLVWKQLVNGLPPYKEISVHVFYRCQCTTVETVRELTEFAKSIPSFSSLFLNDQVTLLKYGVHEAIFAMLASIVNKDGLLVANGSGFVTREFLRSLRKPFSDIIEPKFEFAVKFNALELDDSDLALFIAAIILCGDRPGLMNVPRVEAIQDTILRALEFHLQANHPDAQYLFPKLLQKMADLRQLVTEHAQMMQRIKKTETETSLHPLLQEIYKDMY
T1 sequence (P19793 1-462 partner): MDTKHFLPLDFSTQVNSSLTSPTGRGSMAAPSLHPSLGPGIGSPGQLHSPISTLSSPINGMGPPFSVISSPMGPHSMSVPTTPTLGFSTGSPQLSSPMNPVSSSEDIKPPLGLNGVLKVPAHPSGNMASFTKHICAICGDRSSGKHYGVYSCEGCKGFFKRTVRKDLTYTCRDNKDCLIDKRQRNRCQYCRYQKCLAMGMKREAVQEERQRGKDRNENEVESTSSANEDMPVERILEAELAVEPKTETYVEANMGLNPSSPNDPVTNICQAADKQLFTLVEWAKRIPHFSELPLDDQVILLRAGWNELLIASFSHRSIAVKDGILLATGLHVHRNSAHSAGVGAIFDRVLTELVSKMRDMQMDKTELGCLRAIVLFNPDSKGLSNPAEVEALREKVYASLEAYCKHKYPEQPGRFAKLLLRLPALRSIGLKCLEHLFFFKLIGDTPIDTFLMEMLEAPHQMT
The data set is described as follows: PPARδ-RXRα heterodimer ligand activity, luciferase reporter in COS-1 transformant (Test Example 4). It is filed as cell-based. As to conditions: COS-1 transformant (hPPARδ, hRXRα, reporter), 36-48 hours, concentration for 50% of the maximum fold induction. The method, boiled down:
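COS-1 cells transiently co-transfected with human PPARδ, human RXRα, PPRE-luciferase reporter and pRL-tk, then exposed to compound 36-48 h at 37 °C in DMEM with 0.1% fatty acid-free BSA. Luciferase read as fold induction over untreated; EC50 at 50% of maximal fold induction.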

Data set [1] deals with KKAY mice. The data set is described as follows: Plasma anti-arteriosclerosis index-enhancing action in mice (Test Example 2). It is filed as in vivo. The conditions noted are these: Mus musculus, po, 96 h, 0.005% in powdery diet, four days, percent increase of (HDL cholesterol/total cholesterol)x100, non-treatment group taken as 100%. As to the method: Test compounds were mixed in a powdery diet (CE-2, Japan Clea) at the concentration of 0.005%, and freely given to KKAY mice (9 to 12 weeks old, 5 mice per group), a model of obese and non-insulin dependent diabetes (type 2 diabetes), for four days. During this period, water was given freely. Blood was sampled from orbital venous plexus and components in plasma separated from blood were determined. Total cholesterol levels were determined by using L type Wako Cholesterol (Wako Pure Chemical Industries, Ltd.). Precipitation reagent for HDL cholesterol (Wako Pure Chemical Industries, Ltd.) was added to a part of the plasma to precipitate non-HDL lipoprotein, and cholesterol (HDL cholesterol) in the resulting supernatant was determined. The plasma anti-arteriosclerosis index [(HDL cholesterol/total cholesterol)×100] was calculated by using these cholesterol levels.
In the Table, “Plasma anti-arteriosclerosis index-enhancing action (%)” represents the percent increase (%) of plasma anti-arteriosclerosis index in the treatment group, when the plasma anti-arteriosclerosis index in the non-treatment group is taken as 100%.

Data set [2] concerns KKAY mice. The data set is described as follows: Hypoglycemic and hypolipidemic actions in mice (Test Example 1). It is filed as in vivo. The conditions noted are these: Mus musculus, po, 96 h, 0.005% in powdery diet, four days, non-treated group taken as 100%. The method in brief:
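KKAY mice (9 to 12 weeks old, 5 per group) were fed diet containing 0.005% test compound ad libitum for four days. Plasma glucose and triglycerides from orbital venous blood were measured enzymatically, reported as % decrease relative to untreated group (100%).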

Setting [3] is: rate of decrease in blood glucose level, read-out: Hypoglycemic action (%).
Where [4] appears, read: rate of decrease in blood triglyceride level, read-out: Hypolipidemic action (%).

Each structure is given as a SMILES string. Read-outs that look alike come from different tables or passages of the source.

Molecule `CC(C)c1nn(-c2ccc(C(F)(F)F)cn2)cc1CCCOc1cccc(CC(=O)O)c1` [Example 22, [3-(3-{3-isopropyl-1-[5-(trifluoromethyl)-2-pyridyl]-1H-pyrazol-4-yl}propoxy)phenyl]acetic acid] returned a melting point of 82 to 83 °C. For the same molecule, a half-maximal effect on PPARδ-RXRα heterodimer (EC50) was put at 8.6 nM. For the same molecule, in the data set with KKAY mice [1], the change in vivo at 0.005 % in diet came out at 12%.

`Cc1nn(-c2ccc(C(F)(F)F)cn2)cc1COc1ccc(OC(C)(C)C(=O)O)cc1` [Example 34, 2-methyl-2-(4-{3-methyl-1-[5-(trifluoromethyl)-2-pyridyl]-1H-pyrazol-4-ylmethoxy}phenoxy)propionic acid] yielded a melting point of 106 to 107 °C. For the same molecule, a half-maximal response at PPARδ-RXRα heterodimer (EC50) required 8.1 nM. The change in vivo at 0.005 % in diet in the data set on KKAY mice [1] was determined as 20%. Moreover, the inhibition in vivo at 0.005 % in diet in the data set with KKAY mice [2] (setting [3]) stood at 49%. Besides, the inhibition in vivo at 0.005 % in diet in the data set on KKAY mice [2] (setting [4]) worked out at 77%.

As to `CCOc1cc(OCCCc2cn(-c3ccc(C(F)(F)F)cn3)nc2OCC)ccc1CCC(=O)O` [Example 35, 3-[2-ethoxy-4-(3-{3-ethoxy-1-[5-(trifluoromethyl)-2-pyridyl]-1H-pyrazol-4-yl}propoxy)phenyl]propionic acid], the melting point is 96 to 97 °C. Further, the EC50 at PPARδ-RXRα heterodimer was determined as 1.6 nM. The change in vivo at 0.005 % in diet in the data set on KKAY mice [1] was 14%. Moreover, the inhibition in vivo at 0.005 % in diet in the data set on KKAY mice [2] (setting [3]) was found to be 30%. In addition, the inhibition in vivo at 0.005 % in diet in the data set on KKAY mice [2] (setting [4]) worked out at 32%.

As for `COc1cccc(CC(=O)O)c1OCCCc1cn(-c2ccc(C(F)(F)F)cc2)nc1C(C)C` [Example 185, [2-(3-{3-isopropyl-1-[4-(trifluoromethyl)phenyl]-1H-pyrazol-4-yl}propoxy)-3-methoxyphenyl]acetic acid], the melting point was in the range of 114 to 115 °C. Besides, the change in vivo at 0.005 % in diet with KKAY mice [1] was determined as 15%. Besides, in the data set with KKAY mice [2] (setting [3]), the inhibition in vivo at 0.005 % in diet is 47%. The inhibition in vivo at 0.005 % in diet with KKAY mice [2] (setting [4]) is 43%.

On to `CCC(CC)c1nn(-c2ccc(Cl)cn2)cc1CCCOc1c(C)cccc1CC(=O)O` [Example 224, (2-{3-[1-(5-chloro-2-pyridyl)-3-(1-ethylpropyl)-1H-pyrazol-4-yl]propoxy}-3-methylphenyl)acetic acid], for which the melting point fell in the range of 106 to 107 °C. In the data set with KKAY mice [1], the change in vivo at 0.005 % in diet is 14%. Also, in the data set with KKAY mice [2] (setting [3]), the inhibition in vivo at 0.005 % in diet came to 48%. In addition, the inhibition in vivo at 0.005 % in diet in the data set with KKAY mice [2] (setting [4]) stood at 60%.

The molecule `CCOc1cccc(CC(=O)O)c1OCCCc1cn(-c2ccc(Cl)cn2)nc1C(CC)CC` [Example 225, (2-{3-[1-(5-chloro-2-pyridyl)-3-(1-ethylpropyl)-1H-pyrazol-4-yl]propoxy}-3-ethoxyphenyl)acetic acid] displayed a melting point of 92 to 93 °C. For the same molecule, the change in vivo at 0.005 % in diet in the data set on KKAY mice [1] came to 12%. Besides, in the data set with KKAY mice [2] (setting [3]), the inhibition in vivo at 0.005 % in diet was found to be 31%. Besides, in the data set on KKAY mice [2] (setting [4]), the inhibition in vivo at 0.005 % in diet worked out at 35%.

`CCc1cccc(CC(=O)O)c1OCCCc1cn(-c2ccc(Cl)cn2)nc1C(CC)CC` [Example 253, (2-{3-[1-(5-chloro-2-pyridinyl)-3-(1-ethylpropyl)-1H-pyrazol-4-yl]propoxy}-3-ethylphenyl)acetic acid] gave a melting point of 114 to 115 °C. For the same molecule, in the data set on KKAY mice [1], the change in vivo at 0.005 % in diet was 16%. The inhibition in vivo at 0.005 % in diet in the data set on KKAY mice [2] (setting [3]) came to 49%. The inhibition in vivo at 0.005 % in diet in the data set on KKAY mice [2] (setting [4]) is 35%.

`CCCc1nn(-c2ccc(C(F)(F)F)cn2)cc1CCCOc1c(CC(=O)O)cccc1OCC` [Example 260, [3-ethoxy-2-(3-{3-propyl-1-[5-(trifluoromethyl)-2-pyridyl]-1H-pyrazol-4-yl}propoxy)phenyl]acetic acid] showed a melting point of 133 to 134 °C. In the data set with KKAY mice [1], the change in vivo at 0.005 % in diet came to 22%. The inhibition in vivo at 0.005 % in diet with KKAY mice [2] (setting [3]) is 42%. The inhibition in vivo at 0.005 % in diet in the data set with KKAY mice [2] (setting [4]) came to 44%.

Take `CCOc1cccc(CC(=O)O)c1OCCCc1cn(-c2ccc(C(F)(F)F)cn2)nc1C(C)C` [Example 300, [3-ethoxy-2-(3-{3-isopropyl-1-[5-(trifluoromethyl)-2-pyridinyl]-1H-pyrazol-4-yl}propoxy)phenyl]acetic acid]: the melting point lay within 141 to 142 °C. Besides, the change in vivo at 0.005 % in diet in the data set on KKAY mice [1] was 12%. The inhibition in vivo at 0.005 % in diet in the data set with KKAY mice [2] (setting [3]) amounted to 36%. Also, in the data set with KKAY mice [2] (setting [4]), the inhibition in vivo at 0.005 % in diet worked out at 39%.

`CCCc1nn(-c2ccc(C(F)(F)F)cn2)cc1CCCOc1nn(CC)cc1CC(=O)O` [Example 305, [1-ethyl-3-(3-{3-propyl-1-[5-(trifluoromethyl)-2-pyridinyl]-1H-pyrazol-4-yl}propoxy)-1H-pyrazol-4-yl]acetic acid] displayed a melting point of 105 to 106 °C. Moreover, the change in vivo at 0.005 % in diet with KKAY mice [1] is 22%. In addition, in the data set on KKAY mice [2] (setting [3]), the inhibition in vivo at 0.005 % in diet was determined as 50%. For the same molecule, the inhibition in vivo at 0.005 % in diet in the data set on KKAY mice [2] (setting [4]) came out at 55%.

Turning to `CCn1cc(CC(=O)O)c(OCCCc2cn(-c3ccc(C(F)(F)F)cn3)nc2C(C)C)n1` [Example 313, [1-ethyl-3-(3-{3-isopropyl-1-[5-(trifluoromethyl)-2-pyridinyl]-1H-pyrazol-4-yl}propoxy)-1H-pyrazol-4-yl]acetic acid], the melting point was in the range of 99 to 100 °C. In addition, the change in vivo at 0.005 % in diet in the data set with KKAY mice [1] turned out to be 15%. The inhibition in vivo at 0.005 % in diet in the data set on KKAY mice [2] (setting [3]) amounted to 51%. Also, in the data set on KKAY mice [2] (setting [4]), the inhibition in vivo at 0.005 % in diet is 48%.

`COc1cccc(CC(=O)O)c1OCCCc1cn(-c2ccc(C#N)nn2)nc1C(C)C` [Example 337, (2-{3-[1-(6-cyanopyridazin-3-yl)-3-isopropyl-1H-pyrazol-4-yl]propoxy}-3-methoxyphenyl)acetic acid]: the change in vivo at 0.005 % in diet with KKAY mice [1] amounted to 24%. Moreover, the figures for the inhibition in vivo at 0.005 % in diet in the data set on KKAY mice [2] (setting [3]) and in the data set on KKAY mice [2] (setting [4]) were 44% and 48%, respectively.

`CCC(CC)c1nn(-c2ccc(C(F)(F)F)nn2)cc1CCCOc1c(CC(=O)O)cccc1OC` [Example 339, [2-(3-{3-(1-ethylpropyl)-1-[6-(trifluoromethyl)pyridazin-3-yl]-1H-pyrazol-4-yl}propoxy)-3-methoxyphenyl]acetic acid] came in with a melting point of 81 to 82 °C. Also, in the data set on KKAY mice [1], the change in vivo at 0.005 % in diet is 22%. In addition, the inhibition in vivo at 0.005 % in diet in the data set with KKAY mice [2] (setting [3]) amounted to 50%. In addition, in the data set with KKAY mice [2] (setting [4]), the inhibition in vivo at 0.005 % in diet was determined as 54%.
